Reference: publication PMC7098370 (Toxicological Sciences, 2020)
Like-named read-outs stand apart in the source and are kept apart here. Marks after values point to notes of the source that are not given here.

Legend:
[1] = system: children with sickle cell anemia; details: 1.4–1.8 mg Co/kg/day, ref Gross et al., 1955, Kriss et al.; cited from earlier work
[2] = Bioelution in simulated intestinal fluid; details: simulated intestinal fluid pH 7.4, 2 h
female mice = details: 15-day exposure, ref Finley et al. (2012), Shrivastava et al., 1996; cited from earlier work
[3] = oral administration; ref Kirchgessner et al., 1994; cited from earlier work
[4] = 0.08–0.19 mg Co/kg bw/day, 3-month, ref Tvermoes et al., 2014, cited from earlier work
[5] = Bioelution in simulated gastric fluid
rats [6] = details: cited from earlier work
[7] = Plasma toxicokinetic study; type: in vivo, rat; details: for C max / K el / t 1/2 / Bioavailability (absolute): 10 mg test item/kg PO (2.48 mg Co/kg); for Bioavailability (absolute): vs CoCl2 IV
[8] = Target organ study: tissue distribution of cobalt after 90-day oral exposure; type: in vivo, rat; details: 90-day exposure to 7.44 mg Co/kg bw/day
rats [9] = details: oral, ref Speijers et al. (1982), cited from earlier work
Crl:CD(SD) rats = assay: Subchronic 90-day oral RDT study with reproductive toxicity screening; type: in vivo, rat; details: for erythroid hyperplasia in the bone marrow, incidence: 90 days; for body weight at autopsy reduced: 90-day exposure; for dose level from which hematological parameters were significantly affected: 90-day oral
[10] = Mass balance study: urinary and fecal Co excretion after single oral gavage; type: in vivo, rat; details: single oral bolus 10 mg/kg bw (2.48 mg Co/kg bw), 72 h
[11] = listed as Co Dichloride Hexahydrate
[12] = cobalt dichloride hexahydrate vs tricobalt tetraoxide
[13] = females, 0.74 mg Co/kg bw/day, end of 90-day oral exposure, experimental group
[14] = females, 2.48 mg Co/kg bw/day, end of 90-day oral exposure, experimental group
[15] = females, 7.44 mg Co/kg bw/day, end of 90-day oral exposure, experimental group
[16] = females, 7.44 mg Co/kg bw/day, recovery group, end of 28-day recovery period
[17] = females, 7.44 mg Co/kg bw/day, recovery group, end of 90-day oral exposure
[18] = males, 0.74 mg Co/kg bw/day, end of 90-day oral exposure, experimental group
[19] = males, 2.48 mg Co/kg bw/day, end of 90-day oral exposure, experimental group
[20] = males, 7.44 mg Co/kg bw/day, end of 90-day oral exposure, experimental group
[21] = males, 7.44 mg Co/kg bw/day, recovery group, end of 28-day recovery period
[22] = males, 7.44 mg Co/kg bw/day, recovery group, end of 90-day oral exposure

## O.O.O.O.O.O.[Cl-].[Cl-].[Co+2] [CoCl2, Cobalt dichloride hexahydrate]
[1]
  thyroid effects: decrease in iodine uptake and the development of goiters
[2]
  Bioelution of Co in intestinal fluid (% release): 79 (2 h) % release
[2]; [11]
  Bioelution of Co in intestinal fluid / cobalt release (µg Co/g sample): 198 700 (2 h) µg Co/g sample
Female mice
  dose at which histopathological changes in the thyroid were reported: approximately 50 mg Co/kg bw/day
[3]
  absorbed Co excreted in the feces via the bile: around 1%
[4]; men
  absorption of Co: 20%
[4]; women
  absorption of Co: 45%
[5]; [12]
  difference in in vitro bioaccessibility (factor): 440
[5]; simulated gastric fluid pH 1.5, 2 h, 37°C
  Bioelution of Co in gastric fluid (% release), 2 h: 98.5 % release
Rats [6]; male SD rats, 3-month exposure, ref Domingo et al., 1984
  dose at which adverse cardiac effects were observed: 32 mg Co/kg bw/day
Rats [6]; rats, 7 days, ref Shrivastava et al., 2010
  daily dose at which hematological effects were reported: 12.5 mg Co/kg/day
[7]; females
  C max: 2.61 ng/mL
  K el: 0.0508 h⁻¹
  t 1/2: 13.7 h
  Bioavailability (absolute): ~12%
[7]; females, listed as CoCl2.6H2O
  Bioavailability (absolute): 11.7 (absolute) %
[7]; males
  C max: 2.51 ng/mL
  K el: 0.0489 h⁻¹
  t 1/2: 14.2 h
  Bioavailability (absolute): approximately 7%
[7]; males, listed as CoCl2.6H2O
  Bioavailability (absolute): 6.81 (absolute) %
[7]; oral, rats, average of males and females
  Bioavailability calculated from AUC as % of CoCl2 IV AUC, average of m + f: absolute bioavailability: Absolute bioavailability 9.3%
[7]; single oral bolus, rats, males and females not distinguished
  oral bioavailability: ≤ 12%
[8]
  elevation of tissue Co concentration vs control, most tissues and organs: around 20 fold
Rats [9]
  Acute LD50 (mg Co/kg bw): 190 mg Co/kg bw
  Acute LD50 (mg substance/kg bw): below 1000 mg substance/kg bw
Rats [9]; [11]
  Acute LD50 (mg substance/kg bw): 766 [Speijers et al. (1982)] mg substance/kg bw
Crl:CD(SD) rats; 2.48 mg Co/kg bw/day, females
  erythroid hyperplasia in the bone marrow, incidence: 7/10
Crl:CD(SD) rats; 2.48 mg Co/kg bw/day, males
  erythroid hyperplasia in the bone marrow, incidence: 4/10
Crl:CD(SD) rats; 7.44 mg Co/kg bw/day, both sexes
  erythroid hyperplasia in the bone marrow, incidence: 7/10
Crl:CD(SD) rats; 90-day oral gavage, all doses
  premature deaths: None of the animals treated with any dose of CoCl2 died prematurely
Crl:CD(SD) rats; 90-day oral gavage, rats
  LOAEL (systemic): 2.5 mg Co/kg bw/day
  NOAEL (reproductive): > 7.5 mg Co/kg bw/day
Crl:CD(SD) rats; [12]
  difference in RDT lowest observed adverse effect level (factor): 310
Crl:CD(SD) rats; [13]
  HGB, %Diff vs control: +0.9%
  HGB, mean: 9.62 mmol/L
  RBC, %Diff vs control: +0.6%
  RBC, mean: 8.38 ×10E6/µl
  Reti, %Diff vs control: −18.9%
  Reti, mean: 12 %0 of RBC
Crl:CD(SD) rats; [14]
  HGB, %Diff vs control: +0.3%
  HGB, mean: 9.56 mmol/L
  RBC, %Diff vs control: −2.6%
  RBC, mean: 8.11 ×10E6/µl
  Reti, %Diff vs control: +33.1%
  Reti, mean: 19.7 %0 of RBC
Crl:CD(SD) rats; females, 7.44 mg Co/kg bw/day
  body weight at autopsy reduced: 9%
Crl:CD(SD) rats; [15]
  HGB, %Diff vs control: +13.4%
  HGB, mean: 10.81 mmol/L
  RBC, %Diff vs control: +9.8%
  RBC, mean: 9.15 ×10E6/µl
  Reti, %Diff vs control: +4.1%
  Reti, mean: 15.4 %0 of RBC
Crl:CD(SD) rats; [16]
  HCT, mean: • 45.02 • .841%
  HGB, mean: • 9.56 • .936 mmol/l
  RBC, mean: • 8.01 • .948 ×10E6/µl
  Reti, mean: • 15 • .232 %0 of RBC
Crl:CD(SD) rats; [17]
  HCT, mean: • 52.3 ^** • .0025%
  HGB, mean: • 11.1 ^** • .0017 mmol/l
  RBC, mean: • 9.648 ^* • .030 ×10E6/µl
  Reti, mean: • 15.6 • .933 %0 of RBC
Crl:CD(SD) rats; females, 7.44 mg Co/kg bw/day, test day 118
  body weight reduced at the end of the 4-week recovery period: 13%
Crl:CD(SD) rats; females
  dose level from which hematological parameters were significantly affected: 7.44 mg/kg bw/day
Crl:CD(SD) rats; male rats, 90-day exposure at 7.44 mg Co/kg bw/day
  changes in hematological parameters compared with control: up to 30%
Crl:CD(SD) rats; [18]
  HCT, %Diff vs control: +1.2%
  HCT, mean: 50.51%
  HGB, %Diff vs control: +1.4%
  HGB, mean: 10.50 mmol/L
  PLT, %Diff vs control: −13.5%
  PLT, mean: 793.6 ×10E3/µl
  RBC, %Diff vs control: −1.4%
  RBC, mean: 9.33 ×10E6/µl
  Reti, %Diff vs control: +7.8%
  Reti, mean: 15.2 %0 of RBC
Crl:CD(SD) rats; [19]
  HCT, %Diff vs control: +10.3%
  HCT, mean: 55.07%
  HGB, %Diff vs control: +10.7%
  HGB, mean: 11.46 mmol/L
  PLT, %Diff vs control: −13.9%
  PLT, mean: 789.2 ×10E3/µl
  RBC, %Diff vs control: +9.2%
  RBC, mean: 10.33 ×10E6/µl
  Reti, %Diff vs control: −23.4%
  Reti, mean: 10.8 %0 of RBC
Crl:CD(SD) rats; males, 7.44 mg Co/kg bw/day
  body weight at autopsy reduced: 11%
Crl:CD(SD) rats; [20]
  HCT, %Diff vs control: +24.2%
  HCT, mean: 61.98%
  HGB, %Diff vs control: +25.6%
  HGB, mean: 13.00 mmol/L
  PLT, %Diff vs control: −30.5%
  PLT, mean: 637.1 ×10E3/µl
  RBC, %Diff vs control: +18.9%
  RBC, mean: 11.25 ×10E6/µl
  Reti, %Diff vs control: −25.5%
  Reti, mean: 10.5 %0 of RBC
Crl:CD(SD) rats; [21]
  HCT, mean: • 49.58 • .334%
  HGB, mean: • 10.64 • .087 mmol/l
  PLT, mean: • 917.6 • .551 ×10E3/µl
  RBC, mean: • 9.086 • .373 ×10E6/µl
  Reti, mean: • 15.1 • .0544 %0 of RBC
Crl:CD(SD) rats; [22]
  HCT, mean: • 58.68** • .002%
  HGB, mean: • 12.74** • .0015 mmol/l
  PLT, mean: • 727.2 • .223 ×10E3/µl
  RBC, mean: • 10.89** • .0022 ×10E6/µl
  Reti, mean: • 15.6 • .400 %0 of RBC
Crl:CD(SD) rats; males
  dose level from which hematological parameters were significantly affected: 2.48 mg Co/kg bw/day
[10]; females
  Fecal Excretion (%): 98.5 % of Co applied
  Sum of Urinary and Fecal Excretion (%): 110.7 % of Co applied
  Urinary Excretion (%): 12.2 % of Co applied
[10]; males
  Fecal Excretion (%): 82.4 % of Co applied
  Sum of Urinary and Fecal Excretion (%): 99.5 % of Co applied
  Urinary Excretion (%): 17.1 % of Co applied
